# Source: patent publication US9469650B2, “Melampomagnolide B derivatives” (BOARD OF TRUSTEES OF THE UNIVERSITY OF ARKANSAS, priority 2013, dated 2016)
# Key:
# CAKI-1 = assay: panel of 60 human tumor cell lines, growth inhibition (Renal Cancer)
# LOX IMVI = assay: panel of 60 human tumor cell lines, growth inhibition (Melanoma)
# SF-539 = assay: panel of 60 human tumor cell lines, growth inhibition (CNS Cancer)
# SR = assay: panel of 60 human tumor cell lines, growth inhibition (Leukemia)
# HOP-92 = assay: panel of 60 human tumor cell lines, growth inhibition (Non-Small Cell Lung Cancer); details: for Percent Growth: HOP-92
# SF-295 = assay: panel of 60 human tumor cell lines, growth inhibition (CNS Cancer)
# COLO 205 = assay: panel of 60 human tumor cell lines, growth inhibition (Colon Cancer)
# HOP-62 = assay: panel of 60 human tumor cell lines, growth inhibition (Non-Small Cell Lung Cancer)
# OVCAR-3 = assay: panel of 60 human tumor cell lines, growth inhibition (Ovarian Cancer)
# MDA-MB-468 = assay: panel of 60 human tumor cell lines, growth inhibition (Breast Cancer)
# UACC-257 = assay: panel of 60 human tumor cell lines, growth inhibition (Melanoma)
# PC-3 = assay: panel of 60 human tumor cell lines, growth inhibition (Prostate Cancer)
# MOLT-4 = assay: panel of 60 human tumor cell lines, growth inhibition (Leukemia)
# NCI-H322M = assay: panel of 60 human tumor cell lines, growth inhibition (Non-Small Cell Lung Cancer)
# SW-620 = assay: panel of 60 human tumor cell lines, growth inhibition (Colon Cancer); details: for Percent Growth: SW-620
# U251 = assay: panel of 60 human tumor cell lines, growth inhibition (CNS Cancer); details: for Percent Growth: U251
compound,measurement,setting,value
C=C1C(=O)O[C@H]2[C@H]1CC/C(COC(=O)CCC(=O)NCc1ccc(Cl)nc1)=C\CC[C@@]1(C)O[C@@H]21 [JVM 96],Percent Growth,"CAKI-1; CAKI-1, Log10 Concentration −4.0",−93%
same,Percent Growth,"CAKI-1; CAKI-1, Log10 Concentration −5.0",41%
same,Percent Growth,"CAKI-1; CAKI-1, Log10 Concentration −6.0",87%
same,Percent Growth,"CAKI-1; CAKI-1, Log10 Concentration −7.0",85%
same,Percent Growth,"CAKI-1; CAKI-1, Log10 Concentration −8.0",93%
same,GI50,"CAKI-1; Homo sapiens, CAKI-1",6.37 µM
same,CC50,"CAKI-1; Homo sapiens, CAKI-1, read-out: LC50",47.9 µM
same,IC (TGI),"CAKI-1; Homo sapiens, CAKI-1, read-out: TGI",20.3 µM
same,GI50,LOX IMVI; Homo sapiens,4.74 µM
same,CC50,"LOX IMVI; Homo sapiens, read-out: LC50",47 µM
same,IC (TGI),"LOX IMVI; Homo sapiens, read-out: TGI",16.7 µM
same,Percent Growth,LOX IMVI; Log10 Concentration −4.0,−86%
same,Percent Growth,LOX IMVI; Log10 Concentration −5.0,25%
same,Percent Growth,LOX IMVI; Log10 Concentration −6.0,103%
same,Percent Growth,LOX IMVI; Log10 Concentration −7.0,98%
same,Percent Growth,LOX IMVI; Log10 Concentration −8.0,98%
same,GI50,"SF-539; Homo sapiens, SF-539",3.25 µM
same,CC50,"SF-539; Homo sapiens, SF-539, read-out: LC50",40.8 µM
same,IC (TGI),"SF-539; Homo sapiens, SF-539, read-out: TGI",12.2 µM
same,Percent Growth,"SF-539; SF-539, Log10 Concentration −4.0",−87%
same,Percent Growth,"SF-539; SF-539, Log10 Concentration −5.0",8%
same,Percent Growth,"SF-539; SF-539, Log10 Concentration −6.0",94%
same,Percent Growth,"SF-539; SF-539, Log10 Concentration −7.0",85%
same,Percent Growth,"SF-539; SF-539, Log10 Concentration −8.0",96%
same,GI50,SR; Homo sapiens,2590 nM
same,CC50,"SR; Homo sapiens, read-out: LC50",> 100 µM
same,IC (TGI),"SR; Homo sapiens, read-out: TGI",18 µM
same,Percent Growth,SR; Log10 Concentration −4.0,−35%
same,Percent Growth,SR; Log10 Concentration −5.0,12%
same,Percent Growth,SR; Log10 Concentration −6.0,77%
same,Percent Growth,SR; Log10 Concentration −7.0,90%
same,Percent Growth,SR; Log10 Concentration −8.0,84%
same,Percent Growth,HOP-92; Log10 Concentration −4.0,−93%
same,Percent Growth,HOP-92; Log10 Concentration −5.0,−2%
same,Percent Growth,HOP-92; Log10 Concentration −6.0,90%
same,Percent Growth,HOP-92; Log10 Concentration −7.0,93%
same,Percent Growth,HOP-92; Log10 Concentration −8.0,93%
same,GI50,"HOP-92; Homo sapiens, HOP-92, HOP-92",2720 nM
same,CC50,"HOP-92; Homo sapiens, HOP-92, read-out: LC50",33.7 µM
same,IC (TGI),"HOP-92; Homo sapiens, HOP-92, read-out: TGI",9.47 µM
same,GI50,"SF-295; Homo sapiens, SF-295",16.6 µM
same,CC50,"SF-295; Homo sapiens, SF-295, read-out: LC50",84.2 µM
same,IC (TGI),"SF-295; Homo sapiens, SF-295, read-out: TGI",37.4 µM
same,Percent Growth,"SF-295; SF-295, Log10 Concentration −4.0",−61%
same,Percent Growth,"SF-295; SF-295, Log10 Concentration −5.0",81%
same,Percent Growth,"SF-295; SF-295, Log10 Concentration −6.0",96%
same,Percent Growth,"SF-295; SF-295, Log10 Concentration −7.0",91%
same,Percent Growth,"SF-295; SF-295, Log10 Concentration −8.0",93%
same,Percent Growth,"COLO 205; COLO 205, Log10 Concentration −4.0",−90%
same,Percent Growth,"COLO 205; COLO 205, Log10 Concentration −5.0",1%
same,Percent Growth,"COLO 205; COLO 205, Log10 Concentration −6.0",103%
same,Percent Growth,"COLO 205; COLO 205, Log10 Concentration −7.0",105%
same,Percent Growth,"COLO 205; COLO 205, Log10 Concentration −8.0",109%
same,GI50,"COLO 205; Homo sapiens, COLO 205",3.3 µM
same,CC50,"COLO 205; Homo sapiens, COLO 205, read-out: LC50",36.6 µM
same,IC (TGI),"COLO 205; Homo sapiens, COLO 205, read-out: TGI",10.3 µM
same,Percent Growth,"HOP-62; HOP-62, Log10 Concentration −4.0",−53%
same,Percent Growth,"HOP-62; HOP-62, Log10 Concentration −5.0",95%
same,Percent Growth,"HOP-62; HOP-62, Log10 Concentration −6.0",98%
same,Percent Growth,"HOP-62; HOP-62, Log10 Concentration −7.0",93%
same,Percent Growth,"HOP-62; HOP-62, Log10 Concentration −8.0",95%
same,GI50,"HOP-62; Homo sapiens, HOP-62",20.1 µM
same,CC50,"HOP-62; Homo sapiens, HOP-62, read-out: LC50",95.2 µM
same,IC (TGI),"HOP-62; Homo sapiens, HOP-62, read-out: TGI",43.7 µM
same,GI50,"OVCAR-3; Homo sapiens, OVCAR-3",4.54 µM
same,CC50,"OVCAR-3; Homo sapiens, OVCAR-3, read-out: LC50",40.3 µM
same,IC (TGI),"OVCAR-3; Homo sapiens, OVCAR-3, read-out: TGI",15.7 µM
same,Percent Growth,"OVCAR-3; OVCAR-3, Log10 Concentration −4.0",−98%
same,Percent Growth,"OVCAR-3; OVCAR-3, Log10 Concentration −5.0",24%
same,Percent Growth,"OVCAR-3; OVCAR-3, Log10 Concentration −6.0",100%
same,Percent Growth,"OVCAR-3; OVCAR-3, Log10 Concentration −7.0",107%
same,Percent Growth,"OVCAR-3; OVCAR-3, Log10 Concentration −8.0",96%
same,GI50,"MDA-MB-468; Homo sapiens, MDA-MB-468",1540 nM
same,CC50,"MDA-MB-468; Homo sapiens, MDA-MB-468, read-out: LC50",44.6 µM
same,IC (TGI),"MDA-MB-468; Homo sapiens, MDA-MB-468, read-out: TGI",7.38 µM
same,Percent Growth,"MDA-MB-468; MDA-MB-468, Log10 Concentration −4.0",−72%
same,Percent Growth,"MDA-MB-468; MDA-MB-468, Log10 Concentration −5.0",−10%
same,Percent Growth,"MDA-MB-468; MDA-MB-468, Log10 Concentration −6.0",64%
same,Percent Growth,"MDA-MB-468; MDA-MB-468, Log10 Concentration −7.0",94%
same,Percent Growth,"MDA-MB-468; MDA-MB-468, Log10 Concentration −8.0",88%
same,GI50,"UACC-257; Homo sapiens, UACC-257",8.82 µM
same,CC50,"UACC-257; Homo sapiens, UACC-257, read-out: LC50",53.2 µM
same,TGI,UACC-257; UACC-257,2.26E−5
same,Percent Growth,"UACC-257; UACC-257, Log10 Concentration −4.0",−87%
same,Percent Growth,"UACC-257; UACC-257, Log10 Concentration −5.0",47%
same,Percent Growth,"UACC-257; UACC-257, Log10 Concentration −6.0",95%
same,Percent Growth,"UACC-257; UACC-257, Log10 Concentration −7.0",90%
same,Percent Growth,"UACC-257; UACC-257, Log10 Concentration −8.0",88%
same,GI50,"PC-3; Homo sapiens, PC-3",15.6 µM
same,CC50,"PC-3; Homo sapiens, PC-3, read-out: LC50",75.7 µM
same,IC (TGI),"PC-3; Homo sapiens, PC-3, read-out: TGI",34.3 µM
same,Percent Growth,"PC-3; PC-3, Log10 Concentration −4.0",−68%
same,Percent Growth,"PC-3; PC-3, Log10 Concentration −5.0",78%
same,Percent Growth,"PC-3; PC-3, Log10 Concentration −6.0",93%
same,Percent Growth,"PC-3; PC-3, Log10 Concentration −7.0",92%
same,Percent Growth,"PC-3; PC-3, Log10 Concentration −8.0",90%
same,GI50,"MOLT-4; Homo sapiens, MOLT-4",6.22 µM
same,CC50,"MOLT-4; Homo sapiens, MOLT-4, read-out: LC50",> 100 µM
same,IC (TGI),"MOLT-4; Homo sapiens, MOLT-4, read-out: TGI",38.2 µM
same,Percent Growth,"MOLT-4; MOLT-4, Log10 Concentration −4.0",−25%
same,Percent Growth,"MOLT-4; MOLT-4, Log10 Concentration −5.0",34%
same,Percent Growth,"MOLT-4; MOLT-4, Log10 Concentration −6.0",110%
same,Percent Growth,"MOLT-4; MOLT-4, Log10 Concentration −7.0",105%
same,Percent Growth,"MOLT-4; MOLT-4, Log10 Concentration −8.0",97%
same,GI50,NCI-H322M; Homo sapiens,29.6 µM
same,CC50,"NCI-H322M; Homo sapiens, read-out: LC50",> 100 µM
same,IC (TGI),"NCI-H322M; Homo sapiens, read-out: TGI",> 100 µM
same,Percent Growth,NCI-H322M; Log10 Concentration −4.0,5%
same,Percent Growth,NCI-H322M; Log10 Concentration −5.0,90%
same,Percent Growth,NCI-H322M; Log10 Concentration −6.0,99%
same,Percent Growth,NCI-H322M; Log10 Concentration −7.0,95%
same,Percent Growth,NCI-H322M; Log10 Concentration −8.0,92%
same,GI50,"SW-620; Homo sapiens, SW-620, SW-620",4.35 µM
same,CC50,"SW-620; Homo sapiens, SW-620, read-out: LC50",64.9 µM
same,IC (TGI),"SW-620; Homo sapiens, SW-620, read-out: TGI",17.8 µM
same,Percent Growth,SW-620; Log10 Concentration −4.0,−67%
same,Percent Growth,SW-620; Log10 Concentration −5.0,22%
same,Percent Growth,SW-620; Log10 Concentration −6.0,99%
same,Percent Growth,SW-620; Log10 Concentration −7.0,99%
same,Percent Growth,SW-620; Log10 Concentration −8.0,99%
same,GI50,"U251; Homo sapiens, U-251",16.7 µM
same,CC50,"U251; Homo sapiens, U-251, read-out: LC50",64.5 µM
same,IC (TGI),"U251; Homo sapiens, U-251, read-out: TGI",32.8 µM
same,Percent Growth,U251; Log10 Concentration −4.0,−82%
same,Percent Growth,U251; Log10 Concentration −5.0,88%
same,Percent Growth,U251; Log10 Concentration −6.0,99%
same,Percent Growth,U251; Log10 Concentration −7.0,93%
same,Percent Growth,U251; Log10 Concentration −8.0,92%
